{"source": "patent US5873359A", "about": "“Methods and devices for treating pulmonary vasoconstriction and asthma” (The General Hospital Corporation, priority 1994, dated 1999)", "key": {"[1]": {"system": "haemoglobin", "conditions": "Meyer 1988; cited from earlier work"}, "[2]": {"system": "ARDS", "experiment": "NO inhalation in nine additional ARDS patients", "assay_type": "in vivo, human", "description": "Subsequent subjects. Nine additional patients have been treated for ARDS by NO inhalation, for periods up to 28 days."}, "[3]": {"system": "pulmonary hypertension in ARDS", "experiment": "Inhaled NO versus i.v. prostacyclin in adult with ARDS (first subject)", "assay_type": "in vivo, human", "conditions": "for QVA /QT: sulphur hexafluoride, from 38%", "description": "First subject. The patient had suffered for three weeks from adult respiratory distress syndrome (ARDS) due to aspiration pneumonia. There was diffuse pulmonary edema and a large QVA /QT (30%). After 21 days of venovenous extracorporeal membrane oxygenator support (3 liters/min blood flow), the mean PAP was 55 mm Hg.\nThe short term effects of inhaled nitric oxide were compared with those of i.v. prostacyclin (PGI2; 5ng/kg/min). Mean pulmonary arterial pressure (PAP), right ventricular ejection fraction (RVEF) and gas exchange variables were evaluated. RVEF was assessed by thermodilution, and gas exchange alterations were analyzed using the multiple inert gas elimination technique (MIGET). MIGET and RVEF date were obtained on two different occasions. Ventilator settings were tidal volume 6 ml/kg, respiratory rate 14/min, Fi O2 0.4-0.48 and 5 cm H2 O of PEEP (positive end expiratory pressure)."}, "[4]": {"conditions": "dilute aqueous solution exposed to oxygen; cited from earlier work"}, "[5]": {"system": "hypoxia-induced pulmonary vasoconstriction", "experiment": "40 ppm NO in healthy volunteers breathing 12% O2 (hypoxic, vasoconstricted lung)", "assay_type": "in vivo, human", "description": "The effects of breathing 40 ppm NO were studied in five awake, healthy human volunteer subjects inhaling various gas mixtures for 10 min periods, with measurements starting at 6 min."}}, "data": [{"molecule": "[N]=O", "note": "[NO, nitric oxide]", "values": [{"measurement": "binding to haemoglobin", "setting": "[1]", "result": "the most rapidly binding ligand to haemoglobin so far discovered"}, {"measurement": "methemoglobin levels", "setting": "[2]; NO inhalation up to 28 days", "result": "No important increase of methemoglobin levels"}, {"measurement": "PAP", "setting": "[2]; during NO breathing", "result": "reduced PAP"}, {"measurement": "QVA /QT", "setting": "[2]; during NO breathing", "result": "marked reductions of QVA /QT"}, {"measurement": "survival", "setting": "[2]; nine patients, up to 28 days", "result": "Seven survived"}, {"measurement": "decrease of mean PAP", "setting": "[3]; 18 ppm NO in oxygen", "result": "12-14 mm Hg"}, {"measurement": "mean PAP", "setting": "[3]; 18 ppm NO in oxygen", "result": "38-42 mm Hg"}, {"measurement": "reduction of PVR", "setting": "[3]; 18 ppm NO in oxygen", "result": 44, "unit": "%"}, {"measurement": "wedge pressure", "setting": "[3]; 18 ppm NO in oxygen, remaining constant", "result": "~15", "unit": "mm Hg"}, {"measurement": "cardiac output", "setting": "[3]; 18 ppm NO in oxygen, unchanged", "result": "~7", "unit": "L/min"}, {"measurement": "QVA /QT", "setting": "[3]; 18 ppm NO", "result": 26, "unit": "%"}, {"measurement": "QVA /QT", "setting": "[3]; 36 ppm NO", "result": 33, "unit": "%"}, {"measurement": "additional vasodilation", "setting": "[3]; increasing NO concentration to 36 ppm", "result": "2-5 mm Hg"}, {"measurement": "change of systemic arterial pressure", "setting": "[3]; inhaled NO", "result": "no change of systemic arterial pressure"}, {"measurement": "PAP and RVEF", "setting": "[3]; inhaled NO and i.v. PGI2, text", "result": "lowered PAP and improved RVEF"}, {"measurement": "PaO2, right-to-left shunt and VD /VT", "setting": "[3]; inhaled NO, in contrast to PGI2", "result": "increased PaO2 and decreased right-to-left shunt and VD /VT"}, {"measurement": "MAP", "setting": "[3]; occasion #1, NO 18 ppm", "result": 78, "unit": "mm Hg"}, {"measurement": "PAP", "setting": "[3]; occasion #1, NO 18 ppm", "result": 42, "unit": "mm Hg"}, {"measurement": "PCWP", "setting": "[3]; occasion #1, NO 18 ppm", "result": 15, "unit": "mm Hg"}, {"measurement": "PaO2", "setting": "[3]; occasion #1, NO 18 ppm", "result": 146, "unit": "torr"}, {"measurement": "QA /QT", "setting": "[3]; occasion #1, NO 18 ppm", "result": 26, "unit": "%"}, {"measurement": "VD /VT", "setting": "[3]; occasion #1, NO 18 ppm", "result": 43, "unit": "%"}, {"measurement": "low VD /Q", "setting": "[3]; occasion #1, NO 18 ppm", "result": 1, "unit": "%"}, {"measurement": "MAP", "setting": "[3]; occasion #1, NO 36 ppm", "result": 75, "unit": "mm Hg"}, {"measurement": "PAP", "setting": "[3]; occasion #1, NO 36 ppm", "result": 37, "unit": "mm Hg"}, {"measurement": "PCWP", "setting": "[3]; occasion #1, NO 36 ppm", "result": 15, "unit": "mm Hg"}, {"measurement": "PaO2", "setting": "[3]; occasion #1, NO 36 ppm", "result": 127, "unit": "torr"}, {"measurement": "QA /QT", "setting": "[3]; occasion #1, NO 36 ppm", "result": 33, "unit": "%"}, {"measurement": "VD /VT", "setting": "[3]; occasion #1, NO 36 ppm", "result": 40, "unit": "%"}, {"measurement": "low VD /Q", "setting": "[3]; occasion #1, NO 36 ppm", "result": 0, "unit": "%"}, {"measurement": "MAP", "setting": "[3]; occasion #2, NO 18 ppm", "result": 88, "unit": "mm Hg"}, {"measurement": "PAP", "setting": "[3]; occasion #2, NO 18 ppm", "result": 38, "unit": "mm Hg"}, {"measurement": "PCWP", "setting": "[3]; occasion #2, NO 18 ppm", "result": 14, "unit": "mm Hg"}, {"measurement": "PaO2", "setting": "[3]; occasion #2, NO 18 ppm", "result": 127, "unit": "torr"}, {"measurement": "RVEF", "setting": "[3]; occasion #2, NO 18 ppm", "result": 36, "unit": "%"}, {"measurement": "MAP", "setting": "[3]; occasion #2, NO 36 ppm", "result": 86, "unit": "mm Hg"}, {"measurement": "PAP", "setting": "[3]; occasion #2, NO 36 ppm", "result": 36, "unit": "mm Hg"}, {"measurement": "PCWP", "setting": "[3]; occasion #2, NO 36 ppm", "result": 12, "unit": "mm Hg"}, {"measurement": "PaO2", "setting": "[3]; occasion #2, NO 36 ppm", "result": 113, "unit": "torr"}, {"measurement": "RVEF", "setting": "[3]; occasion #2, NO 36 ppm", "result": 39, "unit": "%"}, {"measurement": "half life", "setting": "[4]", "result": "less than 10 seconds"}, {"measurement": "CO", "setting": "[5]; 12% O2 + 40 ppm NO, n = 5", "result": "8.37 ± 1.68", "unit": "L/min"}, {"measurement": "CVP", "setting": "[5]; 12% O2 + 40 ppm NO, n = 5", "result": "5.2 ± 2.6", "unit": "mmHg"}, {"measurement": "MAP", "setting": "[5]; 12% O2 + 40 ppm NO, n = 5", "result": "86.0 ± 5.7", "unit": "mmHg"}, {"measurement": "PCWP", "setting": "[5]; 12% O2 + 40 ppm NO, n = 5", "result": "8.5 ± 2.2", "unit": "mmHg"}, {"measurement": "PVR", "setting": "[5]; 12% O2 + 40 ppm NO, n = 5", "result": 0.62, "unit": "mmHg · min/l"}, {"measurement": "PaCO2", "setting": "[5]; 12% O2 + 40 ppm NO, n = 5", "result": "34 ± 5", "unit": "mmHg"}, {"measurement": "PaO2", "setting": "[5]; 12% O2 + 40 ppm NO, n = 5", "result": "45 ± 5", "unit": "mmHg"}, {"measurement": "SaO2", "setting": "[5]; 12% O2 + 40 ppm NO, n = 5", "result": "83.9 ± 5.7", "unit": "%"}, {"measurement": "PAP", "setting": "[5]; 12% O2 + 40 ppm NO, n = 5, p < 0.01 vs previous situation", "result": "13.7 ± 1.7", "unit": "mmHg"}, {"measurement": "reversal of hypoxia-induced pulmonary vasoconstriction", "setting": "[5]; 40 ppm NO, 12% v/v oxygen", "result": "reversed completely"}]}]}
